How the values were obtained:
Type in all cases: cell-based
[1] = system: Sensitive Enterococcus faecium and faecalis; assay: MIC, standard broth micro-dilution assay, Sensitive; conditions: geometric mean of 4-6 isolates
Method: (§1) The antibacterial efficacy of the present compounds is illustrated by Table III. The minimal inhibitory concentrations (MICs) were determined using a standard broth micro-dilution assay.

[2] = system: Resistant Enterococcus faecium and faecalis; assay: MIC, standard broth micro-dilution assay, Resistant; conditions: geometric mean of 4-6 isolates
Method: as §1

[3] = system: Staphylococcus aureus SA1199A; assay: MIC, standard broth micro-dilution assay, SA 1199A
Method: as §1

[4] = system: Staphylococcus aureus 447; assay: MIC, standard broth micro-dilution assay, SA 447
Method: as §1

[5] = system: Staphylococcus haemolyticus 415; assay: MIC, standard broth micro-dilution assay, SH 415
Method: as §1

[6] = system: Staphylococcus aureus S13E
Method: as §1

[7] = system: Haemophilus influenzae RD; assay: MIC, standard broth micro-dilution assay, HFRD
Method: as §1

[8] = system: Enterococcus faecalis 276; assay: MIC, standard broth micro-dilution assay, EF 276
Method: as §1

[9] = system: Staphylococcus aureus 491; assay: MIC, standard broth micro-dilution assay, SA 491
Method: as §1

[10] = system: Enterococcus faecium 180-1; assay: MIC, standard broth micro-dilution assay, EF 180-1
Method: as §1

[11] = system: Staphylococcus epidermidis 270; assay: MIC, standard broth micro-dilution assay, SE 270
Method: as §1

[12] = system: Staphylococcus aureus 446; assay: MIC, standard broth micro-dilution assay, SA 446
Method: as §1

Enterococcus faecium 180 = assay: MIC, standard broth micro-dilution assay, EF 180
Method: as §1

Escherichia coli EC14 = assay: MIC, standard broth micro-dilution assay, EC 14
Method: as §1

[13] = system: Staphylococcus aureus SA1199; assay: MIC, standard broth micro-dilution assay, SA 1199
Method: as §1

[14] = system: Staphylococcus haemolyticus 105; assay: MIC, standard broth micro-dilution assay, SH 105
Method: as §1

[15] = system: Staphylococcus aureus X778; assay: MIC, standard broth micro-dilution assay, SA X778
Method: as §1

[16] = system: Enterococcus faecalis 2041; assay: MIC, standard broth micro-dilution assay, EF 2041
Method: as §1

[17] = system: Staphylococcus aureus 489; assay: MIC, standard broth micro-dilution assay, SA 489
Method: as §1

[18] = system: Enterococcus gallinarum 245; assay: MIC, standard broth micro-dilution assay, EG 245
Method: as §1

[19] = system: Staphylococcus aureus X400; assay: MIC, standard broth micro-dilution assay, SA X400
Method: as §1

SMILES: CC1OC(OC2c3ccc(c(Cl)c3)Oc3cc4cc(c3OC3OC(CO)C(O)C(O)C3OC3CC(C)(NCc5ccc(-c6ccccc6)cc5)C(O)C(C)O3)Oc3ccc(cc3Cl)C(O)C(NC(=O)C(Cc3c[nH]c5ccccc35)NC(=O)OC(C)(C)C)C(=O)NC(CC(N)=O)C(=O)NC4C(=O)NC3C(=O)NC2C(=O)NC(C(=O)O)c2cc(O)cc(O)c2-c2cc3ccc2O)CC(C)(N)C1O [Example 25, N^1-(N-BOC-D-tryptophan) derivative of N^DISACC-(p-phenylbenzyl)desleucylA82846B]
- minimal inhibitory concentration (MIC), Sensitive [1]: 1.3
- minimal inhibitory concentration (MIC), Resistant [2]: 27
- minimal inhibitory concentration (MIC), SA 1199A [3]: 0.5
- minimal inhibitory concentration (MIC), SA 447 [4]: 2
- minimal inhibitory concentration (MIC), SH 415 [5]: 4
- minimal inhibitory concentration (MIC), SA S13E [6]: 2
- minimal inhibitory concentration (MIC), HFRD [7]: >64
- minimal inhibitory concentration (MIC), EF 276 [8]: 2
- minimal inhibitory concentration (MIC), SA 491 [9]: 2
- minimal inhibitory concentration (MIC), EF 180-1 [10]: ≦.06
- minimal inhibitory concentration (MIC), SE 270 [11]: 2
- minimal inhibitory concentration (MIC), SA 446 [12]: 4
- minimal inhibitory concentration (MIC), EF 180 (Enterococcus faecium 180): 8
- minimal inhibitory concentration (MIC), EC 14 (Escherichia coli EC14): >64
- minimal inhibitory concentration (MIC), SA 1199 [13]: 1
- minimal inhibitory concentration (MIC), SH 105 [14]: 2
- minimal inhibitory concentration (MIC), SA X778 [15]: 2
- minimal inhibitory concentration (MIC), EF 2041 [16]: 1
- minimal inhibitory concentration (MIC), SA 489 [17]: 1
- minimal inhibitory concentration (MIC), EG 245 [18]: 2
- minimal inhibitory concentration (MIC), SA X400 [19]: 2

SMILES: CC1OC(OC2c3ccc(c(Cl)c3)Oc3cc4cc(c3OC3OC(CO)C(O)C(O)C3OC3CC(C)(NCc5ccc(-c6ccccc6)cc5)C(O)C(C)O3)Oc3ccc(cc3Cl)C(O)C(NC(=O)C3CCCN3C(=O)OC(C)(C)C)C(=O)NC(CC(N)=O)C(=O)NC4C(=O)NC3C(=O)NC2C(=O)NC(C(=O)O)c2cc(O)cc(O)c2-c2cc3ccc2O)CC(C)(N)C1O [Example 26, N^1-(N-BOC-D-proline) derivative of N^DISACCC-(p-phenylbenzyl)desleucylA82846B]
- minimal inhibitory concentration (MIC), Sensitive [1]: 0.76
- minimal inhibitory concentration (MIC), Resistant [2]: 23
- minimal inhibitory concentration (MIC), SA 1199A [3]: 0.125
- minimal inhibitory concentration (MIC), SA 447 [4]: 1
- minimal inhibitory concentration (MIC), SH 415 [5]: 2
- minimal inhibitory concentration (MIC), SA S13E [6]: 1
- minimal inhibitory concentration (MIC), HFRD [7]: >64
- minimal inhibitory concentration (MIC), EF 276 [8]: 1
- minimal inhibitory concentration (MIC), SA 491 [9]: ≦.06
- minimal inhibitory concentration (MIC), EF 180-1 [10]: ≦.06
- minimal inhibitory concentration (MIC), SE 270 [11]: 0.25
- minimal inhibitory concentration (MIC), SA 446 [12]: 2
- minimal inhibitory concentration (MIC), EF 180 (Enterococcus faecium 180): 4
- minimal inhibitory concentration (MIC), EC 14 (Escherichia coli EC14): >64
- minimal inhibitory concentration (MIC), SA 1199 [13]: 1
- minimal inhibitory concentration (MIC), SH 105 [14]: 1
- minimal inhibitory concentration (MIC), SA X778 [15]: 0.5
- minimal inhibitory concentration (MIC), EF 2041 [16]: 0.25
- minimal inhibitory concentration (MIC), SA 489 [17]: 0.5
- minimal inhibitory concentration (MIC), EG 245 [18]: 0.5
- minimal inhibitory concentration (MIC), SA X400 [19]: 0.5

SMILES: CC(C)CC(N)C(=O)NC1C(=O)NC(CC(N)=O)C(=O)NC2C(=O)NC3C(=O)NC(C(=O)NC(C(=O)O)c4cc(O)cc(O)c4-c4cc3ccc4O)C(OC3CC(C)(N)C(O)C(C)O3)c3ccc(c(Cl)c3)Oc3cc2cc(c3OC2OC(CO)C(O)C(O)C2OC2CC(C)(NCc3ccc(-c4ccccc4)cc3)C(O)C(C)O2)Oc2ccc(cc2Cl)C1O [Example 27, N^1-L-leucine derivative of N^DISACC-(p-phenylbenzyl)desleucylA82846B]
- minimal inhibitory concentration (MIC), Sensitive [1]: 1
- minimal inhibitory concentration (MIC), Resistant [2]: 16
- minimal inhibitory concentration (MIC), SA 1199A [3]: 0.5
- minimal inhibitory concentration (MIC), SA 447 [4]: 1
- minimal inhibitory concentration (MIC), SH 415 [5]: 2
- minimal inhibitory concentration (MIC), SA S13E [6]: 2
- minimal inhibitory concentration (MIC), HFRD [7]: 64
- minimal inhibitory concentration (MIC), EF 276 [8]: 1
- minimal inhibitory concentration (MIC), SA 491 [9]: 1
- minimal inhibitory concentration (MIC), EF 180-1 [10]: 0.25
- minimal inhibitory concentration (MIC), SE 270 [11]: 0.25
- minimal inhibitory concentration (MIC), SA 446 [12]: 2
- minimal inhibitory concentration (MIC), EF 180 (Enterococcus faecium 180): 4
- minimal inhibitory concentration (MIC), EC 14 (Escherichia coli EC14): >64
- minimal inhibitory concentration (MIC), SA 1199 [13]: 1
- minimal inhibitory concentration (MIC), SH 105 [14]: 0.125
- minimal inhibitory concentration (MIC), SA X778 [15]: 1
- minimal inhibitory concentration (MIC), EF 2041 [16]: 1
- minimal inhibitory concentration (MIC), SA 489 [17]: 4
- minimal inhibitory concentration (MIC), EG 245 [18]: 0.5
- minimal inhibitory concentration (MIC), SA X400 [19]: 2

SMILES: CC1OC(OC2c3ccc(c(Cl)c3)Oc3cc4cc(c3OC3OC(CO)C(O)C(O)C3OC3CC(C)(NCc5ccc(-c6ccccc6)cc5)C(O)C(C)O3)Oc3ccc(cc3Cl)C(O)C(NC(=O)C(Cc3ccc(Cl)cc3)NC(=O)OC(C)(C)C)C(=O)NC(CC(N)=O)C(=O)NC4C(=O)NC3C(=O)NC2C(=O)NC(C(=O)O)c2cc(O)cc(O)c2-c2cc3ccc2O)CC(C)(N)C1O [Example 28, N^1-[N-BOC-L-3-(p-chlorophenyl)alanine] derivative of N^DISACC-(p-phenylbenzyl)desleucylA82846B]
- minimal inhibitory concentration (MIC), Sensitive [1]: 1.7
- minimal inhibitory concentration (MIC), Resistant [2]: 13
- minimal inhibitory concentration (MIC), SA 1199A [3]: 1
- minimal inhibitory concentration (MIC), SA 447 [4]: 2
- minimal inhibitory concentration (MIC), SH 415 [5]: 4
- minimal inhibitory concentration (MIC), SA S13E [6]: 2
- minimal inhibitory concentration (MIC), HFRD [7]: >64
- minimal inhibitory concentration (MIC), EF 276 [8]: 1
- minimal inhibitory concentration (MIC), SA 491 [9]: 2
- minimal inhibitory concentration (MIC), EF 180-1 [10]: 0.5
- minimal inhibitory concentration (MIC), SE 270 [11]: 1
- minimal inhibitory concentration (MIC), SA 446 [12]: 4
- minimal inhibitory concentration (MIC), EF 180 (Enterococcus faecium 180): 2
- minimal inhibitory concentration (MIC), EC 14 (Escherichia coli EC14): >64
- minimal inhibitory concentration (MIC), SA 1199 [13]: 2
- minimal inhibitory concentration (MIC), SH 105 [14]: 2
- minimal inhibitory concentration (MIC), SA X778 [15]: 1
- minimal inhibitory concentration (MIC), EF 2041 [16]: 2
- minimal inhibitory concentration (MIC), SA 489 [17]: 1
- minimal inhibitory concentration (MIC), EG 245 [18]: 2
- minimal inhibitory concentration (MIC), SA X400 [19]: 2

SMILES: CC1OC(OC2c3ccc(c(Cl)c3)Oc3cc4cc(c3OC3OC(CO)C(O)C(O)C3OC3CC(C)(NCc5ccc(-c6ccccc6)cc5)C(O)C(C)O3)Oc3ccc(cc3Cl)C(O)C(NC(=O)C3CCCN3C(=O)OC(C)(C)C)C(=O)NC(CC(N)=O)C(=O)NC4C(=O)NC3C(=O)NC2C(=O)NC(C(=O)O)c2cc(O)cc(O)c2-c2cc3ccc2O)CC(C)(N)C1O [Example 29, N^1-(N-BOC-L-proline) derivative of N^DISACC-(p-phenylbenzyl)desleucylA82846B]
- minimal inhibitory concentration (MIC), Sensitive [1]: 1.2
- minimal inhibitory concentration (MIC), Resistant [2]: 27
- minimal inhibitory concentration (MIC), SA 1199A [3]: ≦.06
- minimal inhibitory concentration (MIC), SA 447 [4]: 0.5
- minimal inhibitory concentration (MIC), SH 415 [5]: 0.5
- minimal inhibitory concentration (MIC), SA S13E [6]: 0.5
- minimal inhibitory concentration (MIC), HFRD [7]: >64
- minimal inhibitory concentration (MIC), EF 276 [8]: 0.25
- minimal inhibitory concentration (MIC), SA 491 [9]: ≦.06
- minimal inhibitory concentration (MIC), EF 180-1 [10]: ≦.06
- minimal inhibitory concentration (MIC), SE 270 [11]: ≦.06
- minimal inhibitory concentration (MIC), SA 446 [12]: 2
- minimal inhibitory concentration (MIC), EF 180 (Enterococcus faecium 180): 4
- minimal inhibitory concentration (MIC), EC 14 (Escherichia coli EC14): >64
- minimal inhibitory concentration (MIC), SA 1199 [13]: 0.125
- minimal inhibitory concentration (MIC), SH 105 [14]: 0.125
- minimal inhibitory concentration (MIC), SA X778 [15]: 0.125
- minimal inhibitory concentration (MIC), EF 2041 [16]: 0.125
- minimal inhibitory concentration (MIC), SA 489 [17]: 0.25
- minimal inhibitory concentration (MIC), EG 245 [18]: 2
- minimal inhibitory concentration (MIC), SA X400 [19]: 0.25

SMILES: CC1OC(OC2c3ccc(c(Cl)c3)Oc3cc4cc(c3OC3OC(CO)C(O)C(O)C3OC3CC(C)(NCc5ccc(-c6ccccc6)cc5)C(O)C(C)O3)Oc3ccc(cc3Cl)C(O)C(NC(=O)C(CCCCNC(=O)OC(C)(C)C)NC(=O)OC(C)(C)C)C(=O)NC(CC(N)=O)C(=O)NC4C(=O)NC3C(=O)NC2C(=O)NC(C(=O)O)c2cc(O)cc(O)c2-c2cc3ccc2O)CC(C)(N)C1O [Example 30, N^1-(N,N′-DIBOC-L-lysine) derivative of N^DISACC-(p-phenylbenzyl)desleucylA82846B]
- minimal inhibitory concentration (MIC), Sensitive [1]: 2.3
- minimal inhibitory concentration (MIC), Resistant [2]: 38
- minimal inhibitory concentration (MIC), SA 1199A [3]: 1
- minimal inhibitory concentration (MIC), SA 447 [4]: 2
- minimal inhibitory concentration (MIC), SH 415 [5]: 2
- minimal inhibitory concentration (MIC), SA S13E [6]: 2
- minimal inhibitory concentration (MIC), HFRD [7]: >64
- minimal inhibitory concentration (MIC), EF 276 [8]: 2
- minimal inhibitory concentration (MIC), SA 491 [9]: 2
- minimal inhibitory concentration (MIC), EF 180-1 [10]: 0.5
- minimal inhibitory concentration (MIC), SE 270 [11]: 1
- minimal inhibitory concentration (MIC), SA 446 [12]: 8
- minimal inhibitory concentration (MIC), EF 180 (Enterococcus faecium 180): 8
- minimal inhibitory concentration (MIC), EC 14 (Escherichia coli EC14): >64
- minimal inhibitory concentration (MIC), SA 1199 [13]: 2
- minimal inhibitory concentration (MIC), SH 105 [14]: 2
- minimal inhibitory concentration (MIC), SA X778 [15]: 1
- minimal inhibitory concentration (MIC), EF 2041 [16]: 1
- minimal inhibitory concentration (MIC), SA 489 [17]: 1
- minimal inhibitory concentration (MIC), EG 245 [18]: 2
- minimal inhibitory concentration (MIC), SA X400 [19]: 2

Source: patent US6670446B1, “N1 modified glycopeptides” (Eli Lilly and Company, priority 1998, dated 2003)
